Experimental data: US12421225B2, “Heteroaromatic amide derivative and medicament containing the same” (KAKEN PHARMACEUTICAL CO., LTD., priority 2018, dated 2025)
pIC50: −log10 of the molar value. Where a name gives a salt, the structure may show the parent alone.

How the values were obtained:
human Nav1.7 = human Nav1.7 (Homo sapiens (Human), UniProt Q15858); assay: Human Nav1.7 inhibitory activity evaluation (automated patch clamp QPatch16X, HEK293A cells stably expressing human Nav1.7 and human Navβ1); assay type: cell-based
Chain of human Nav1.7 (Q15858 whole entry): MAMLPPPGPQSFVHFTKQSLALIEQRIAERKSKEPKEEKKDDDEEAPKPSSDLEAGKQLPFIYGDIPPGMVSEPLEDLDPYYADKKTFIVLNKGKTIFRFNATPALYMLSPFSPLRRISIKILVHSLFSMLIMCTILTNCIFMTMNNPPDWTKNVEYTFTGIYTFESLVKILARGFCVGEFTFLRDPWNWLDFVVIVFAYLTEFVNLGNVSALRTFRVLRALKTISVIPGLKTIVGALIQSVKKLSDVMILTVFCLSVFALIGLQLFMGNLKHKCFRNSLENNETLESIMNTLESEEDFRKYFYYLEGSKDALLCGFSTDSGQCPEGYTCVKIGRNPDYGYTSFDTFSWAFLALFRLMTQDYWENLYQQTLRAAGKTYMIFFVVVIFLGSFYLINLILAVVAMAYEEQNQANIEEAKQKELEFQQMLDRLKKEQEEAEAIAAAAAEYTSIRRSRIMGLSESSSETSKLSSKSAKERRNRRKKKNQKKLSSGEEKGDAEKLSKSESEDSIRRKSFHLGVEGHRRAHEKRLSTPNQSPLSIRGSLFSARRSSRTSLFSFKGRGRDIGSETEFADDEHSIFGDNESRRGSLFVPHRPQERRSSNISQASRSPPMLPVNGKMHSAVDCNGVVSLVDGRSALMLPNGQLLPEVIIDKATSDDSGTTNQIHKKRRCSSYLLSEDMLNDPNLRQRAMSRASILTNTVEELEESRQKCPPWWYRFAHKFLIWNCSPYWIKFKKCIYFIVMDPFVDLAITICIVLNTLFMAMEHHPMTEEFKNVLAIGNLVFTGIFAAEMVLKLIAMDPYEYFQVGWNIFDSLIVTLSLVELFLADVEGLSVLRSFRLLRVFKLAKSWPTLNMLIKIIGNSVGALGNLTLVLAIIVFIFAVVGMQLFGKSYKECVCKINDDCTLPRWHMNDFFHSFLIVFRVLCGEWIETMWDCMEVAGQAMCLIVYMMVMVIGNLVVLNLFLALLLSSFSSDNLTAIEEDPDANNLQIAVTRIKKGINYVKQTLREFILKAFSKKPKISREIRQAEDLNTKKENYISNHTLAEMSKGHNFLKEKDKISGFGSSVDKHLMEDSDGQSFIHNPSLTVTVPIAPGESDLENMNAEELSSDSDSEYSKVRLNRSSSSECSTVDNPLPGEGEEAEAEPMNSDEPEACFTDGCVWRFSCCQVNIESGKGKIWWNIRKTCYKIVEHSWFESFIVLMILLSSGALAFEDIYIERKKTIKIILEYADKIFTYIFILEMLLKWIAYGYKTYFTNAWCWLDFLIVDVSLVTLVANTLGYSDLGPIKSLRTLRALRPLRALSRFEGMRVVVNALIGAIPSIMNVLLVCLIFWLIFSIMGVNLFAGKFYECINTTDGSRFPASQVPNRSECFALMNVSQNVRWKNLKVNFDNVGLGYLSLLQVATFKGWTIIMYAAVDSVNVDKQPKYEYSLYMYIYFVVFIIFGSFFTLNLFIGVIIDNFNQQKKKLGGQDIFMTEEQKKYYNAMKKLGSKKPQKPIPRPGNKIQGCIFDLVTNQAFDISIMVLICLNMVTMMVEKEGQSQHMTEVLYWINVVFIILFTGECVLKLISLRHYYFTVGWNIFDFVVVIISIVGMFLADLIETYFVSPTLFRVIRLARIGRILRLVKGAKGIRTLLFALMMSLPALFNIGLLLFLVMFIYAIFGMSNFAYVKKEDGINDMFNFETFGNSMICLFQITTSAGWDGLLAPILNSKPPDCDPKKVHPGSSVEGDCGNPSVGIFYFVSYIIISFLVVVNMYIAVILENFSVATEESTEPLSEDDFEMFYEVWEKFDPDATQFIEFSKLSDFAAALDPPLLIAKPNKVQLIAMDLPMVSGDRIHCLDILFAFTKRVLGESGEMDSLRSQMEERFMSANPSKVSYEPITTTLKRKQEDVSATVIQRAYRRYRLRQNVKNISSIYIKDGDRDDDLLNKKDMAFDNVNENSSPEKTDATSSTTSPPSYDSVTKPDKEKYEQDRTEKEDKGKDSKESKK
Chain of human Nav1.7 (Q07699 19-218 partner): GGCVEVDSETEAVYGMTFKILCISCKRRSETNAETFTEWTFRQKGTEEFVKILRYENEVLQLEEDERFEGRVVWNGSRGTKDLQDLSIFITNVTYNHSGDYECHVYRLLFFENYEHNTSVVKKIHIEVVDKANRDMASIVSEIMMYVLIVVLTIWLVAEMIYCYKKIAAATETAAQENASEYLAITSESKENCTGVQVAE
Method in brief: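 IC50 calculated from the concentration-response of inward current evoked by the second −10 mV, 50 ms depolarisation, which follows a 15 s conditioning step at roughly 30-40% inactivation and a 100 ms −120 mV interval. Cells: HEK293A expressing human Nav1.7/Navβ1, automated patch clamp, room temperature, 0.1% DMSO final.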

human Nav1.5 = human Nav1.5 (Homo sapiens (Human), UniProt Q14524); assay: Human Nav1.5 inhibitory activity evaluation (automated patch clamp QPatch16X, HEK293 cells stably expressing human Nav1.5); assay type: cell-based
Chain of human Nav1.5 (Q14524 whole entry): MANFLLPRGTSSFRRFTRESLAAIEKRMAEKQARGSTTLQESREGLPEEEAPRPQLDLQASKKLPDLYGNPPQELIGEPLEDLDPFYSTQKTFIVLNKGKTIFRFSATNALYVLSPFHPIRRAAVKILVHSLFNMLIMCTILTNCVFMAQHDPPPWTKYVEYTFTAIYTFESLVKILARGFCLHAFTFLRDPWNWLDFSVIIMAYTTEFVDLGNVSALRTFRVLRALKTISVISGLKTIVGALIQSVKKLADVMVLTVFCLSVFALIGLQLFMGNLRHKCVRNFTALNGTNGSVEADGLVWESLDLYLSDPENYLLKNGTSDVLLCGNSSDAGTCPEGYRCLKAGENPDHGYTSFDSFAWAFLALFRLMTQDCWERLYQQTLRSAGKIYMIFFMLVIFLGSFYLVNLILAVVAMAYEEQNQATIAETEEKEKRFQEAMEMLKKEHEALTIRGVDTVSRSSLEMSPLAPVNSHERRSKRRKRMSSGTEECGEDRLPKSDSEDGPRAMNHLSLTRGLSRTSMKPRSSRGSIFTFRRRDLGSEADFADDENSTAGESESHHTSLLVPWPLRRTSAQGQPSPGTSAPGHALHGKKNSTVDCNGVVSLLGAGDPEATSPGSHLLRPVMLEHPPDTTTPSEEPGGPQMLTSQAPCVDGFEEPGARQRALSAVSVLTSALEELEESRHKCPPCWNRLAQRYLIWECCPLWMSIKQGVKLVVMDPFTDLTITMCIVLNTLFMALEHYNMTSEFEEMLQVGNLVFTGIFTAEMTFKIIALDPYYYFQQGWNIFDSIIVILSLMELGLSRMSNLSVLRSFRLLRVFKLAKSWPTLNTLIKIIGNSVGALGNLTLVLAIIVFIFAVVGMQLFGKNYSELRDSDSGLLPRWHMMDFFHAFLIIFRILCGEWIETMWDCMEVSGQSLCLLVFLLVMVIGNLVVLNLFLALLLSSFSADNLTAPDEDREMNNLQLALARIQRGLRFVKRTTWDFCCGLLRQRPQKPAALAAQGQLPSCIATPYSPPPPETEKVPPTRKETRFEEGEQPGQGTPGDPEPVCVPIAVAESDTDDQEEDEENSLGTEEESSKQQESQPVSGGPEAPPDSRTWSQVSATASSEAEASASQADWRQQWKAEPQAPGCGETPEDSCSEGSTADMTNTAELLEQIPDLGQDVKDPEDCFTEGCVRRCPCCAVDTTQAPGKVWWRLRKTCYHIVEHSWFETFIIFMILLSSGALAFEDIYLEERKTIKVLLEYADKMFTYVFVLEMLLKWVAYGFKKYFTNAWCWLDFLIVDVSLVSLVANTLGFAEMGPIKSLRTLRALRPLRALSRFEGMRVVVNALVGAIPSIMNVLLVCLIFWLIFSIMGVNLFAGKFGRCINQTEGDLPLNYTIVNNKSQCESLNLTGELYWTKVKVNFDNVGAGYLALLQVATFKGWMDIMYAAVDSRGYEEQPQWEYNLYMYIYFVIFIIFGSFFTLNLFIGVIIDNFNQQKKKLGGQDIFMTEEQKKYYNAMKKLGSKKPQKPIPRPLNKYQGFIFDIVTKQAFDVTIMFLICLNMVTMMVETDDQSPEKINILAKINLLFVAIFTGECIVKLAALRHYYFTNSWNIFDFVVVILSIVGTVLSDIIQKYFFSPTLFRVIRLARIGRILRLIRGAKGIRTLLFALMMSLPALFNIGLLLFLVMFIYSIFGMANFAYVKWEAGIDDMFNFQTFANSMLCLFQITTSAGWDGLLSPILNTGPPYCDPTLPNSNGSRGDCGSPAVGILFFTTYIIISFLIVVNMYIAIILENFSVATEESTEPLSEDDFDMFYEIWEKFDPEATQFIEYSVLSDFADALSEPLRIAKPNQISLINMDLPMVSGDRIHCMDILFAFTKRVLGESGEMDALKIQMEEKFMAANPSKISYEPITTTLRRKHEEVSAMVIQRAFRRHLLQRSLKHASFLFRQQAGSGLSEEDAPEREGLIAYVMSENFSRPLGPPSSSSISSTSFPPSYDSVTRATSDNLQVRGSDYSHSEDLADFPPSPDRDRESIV
Method in brief: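 IC50 derived from concentration-response of inward current at the 20th of 20 action-potential-mimicking pulses (holding −80 mV, leak corrected with −100 mV step). HEK293 cells stably expressing human Nav1.5, room temperature, extracellular pH 7.4, intracellular CsF-based pH 7.3, 0.1% DMSO.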

male ICR mice [1] = assay: Effect on a neuropathic pain (L5 spinal nerve cut, von Frey 50% pain threshold); assay type: in vivo; conditions: allodynia-developed mice, dose of 10 mg/kg or less, single oral administration
Method: Test Example 4: Effect on a Neuropathic Pain
Five-week old male ICR mice were used for the test. The skin and muscles were incised to expose the sixth lumbar vertebra under isoflurane anesthesia, and the right transverse process was removed. The L5 spinal nerve was isolated from the surrounding tissue to cut out, and then the incision site was sutured.
The 50% pain threshold of the plantar surface was determined by referring to the method of Chaplan S R et al. (J Neurosci Methods 1994, 53: 55-63) using von Frey filaments (0.008 g, 0.02 g, 0.04 g, 0.07 g, 0.16 g, 0.4 g and 0.6 g). First, the mice were placed in a measurement case with a lattice scaffold and habituatedd until the animal settled; 0.07 g of filament was pressed against the plantar surface for about 3 seconds. If withdrawal behavior was observed, the filament with the stimulation intensity one level lower was used to apply stimulation, and conversely, if the withdrawal behavior was not detected, the filament with the stimulation intensity one level higher was used to apply stimulation. By repeating this operation, starting from 2 times before and after the presence or absence of escape behavior changed, the results for a total of 6 times were recorded, to calculate a 50% pain threshold using the following calculation formula. 50% pain threshold (g)=(10^[Xf+κδ]/10000)
Xf is the value of the stimulus intensity of the filament used in the last stimulation (log value), κ is the value derived from the pattern of presence/absence of withdrawal behavior for 6 times, and δ is the difference in stimulus intensity (log value) between the filaments used (here 0.365).

male ICR mice [2] = assay: Effect on acute pain (capsaicin-induced pain-related behavior, hind paw); assay type: in vivo
Method: Test Example 3: Effect on Acute Pain
Six-week old male ICR mice were used for the test. Test compounds were orally administered at 1-10 mg/kg and the mice were habituated to a clear observation cage for 60 minutes. The mice were lightly restrained under no anesthesia and 20 μL of 80 μg/mL (0.8% ethanol-saline) capsaicin solution was injected subcutaneously into the plantar surface of rihgt hind paw of mice. The mice were returned to the observation cage and, from just after that, the duration of pain-related behavior (licking, shaking) occurring in the right hind limb was measured as the reaction time for 5 minutes.
The inhibition rate of the test compound was determined by the following calculation formula. Test compound inhibition rate (%)=100×[1−(response time of test compound administered group/response time of vehicle control group)]

[3] = HEK293A cells stably expressing human Nav1.7 and human Navβ1, automated patch clamp QPatch16X
[4] = HEK293 cells stably expressing human Nav1.5, automated patch clamp QPatch16X

pIC50 (human Nav1.7; [3]) | pIC50 (human Nav1.7; human Nav1.7, automated patch clamp) | SMILES | pIC50 (human Nav1.5; [4]) | 50% pain threshold (antiallodynic effect) (male ICR mice [1]) | Inhibition rate (%) (male ICR mice [2]) | pIC50 (human Nav1.5; human Nav1.5, automated patch clamp)
> 6.00 | – | N#Cc1ccc2c(c1)C[C@@H](NC(=O)c1cc3n(n1)CCC(COCC1CC1)O3)CO2 (single isomer, unassigned) [103 (isomer A)] | ≤ 5.52 | increased the 50% pain threshold | A (Compounds with an inhibition rate of 30% or more are indicated by the letter “A”) | –
– | > 6.00 | O=C(N[C@H]1COc2ccc(C(F)(F)F)cc2C1)c1cc2n(n1)CCC(C(F)F)O2 (single isomer, unassigned) [161 (isomer A)] | – | increased the 50% pain threshold | A (Compounds with an inhibition rate of 30% or more are indicated by the letter “A”) | ≤ 5.52

The remaining lines, values behind:

SMILES | pIC50 (human Nav1.7; [3]) | pIC50 (human Nav1.7; human Nav1.7, automated patch clamp) | pIC50 (human Nav1.5; [4]) | 50% pain threshold (antiallodynic effect) (male ICR mice [1]) | Inhibition rate (%) (male ICR mice [2]) | pIC50 (human Nav1.5; human Nav1.5, automated patch clamp)
N#Cc1ccc2c(c1)C[C@@H](NC(=O)c1cc3n(n1)CCC(COC(F)(F)F)O3)CO2 (single isomer, unassigned) [134 (isomer A)] | > 6.00 | – | 5.52 to 6.00 | increased the 50% pain threshold | A (Compounds with an inhibition rate of 30% or more are indicated by the letter “A”) | –
N#Cc1ccc2c(c1)C[C@@H](NC(=O)c1cc3n(n1)CCC(c1ccccc1F)O3)CO2 (stereo partly drawn) [Example 70, N—((R)-6-cyanochroman-3-yl)-5-(2-fluorophenyl)-6,7-dihydro-5H-pyrazolo[5,1-b][1,3]oxazine-2-carboxamide] | > 6.00 | – | 5.52 to 6.00 | increased the 50% pain threshold | A (Compounds with an inhibition rate of 30% or more are indicated by the letter “A”) | –
N#Cc1ccc2c(c1)C[C@@H](NC(=O)c1cc3n(n1)CCN(Cc1ccc(F)cc1)C3)CO2 [Example 290, (R)—N-(6-cyanochroman-3-yl)-5-(4-fluorobenzyl)-4,5,6,7-tetrahydropyrazolo[1,5-a]pyrazine-2-carboxamide hydrochloride] | – | – | – | increased the 50% pain threshold | A (Compounds with an inhibition rate of 30% or more are indicated by the letter “A”) | –
